Measured values from US12428406B2 (PMV Pharmaceuticals, Inc., priority 2019, dated 2025).

Target: T1, p53 Y220C (Homo sapiens, UniProt P04637, Y220C)
T1 construct: The recombinant protein was a truncation mutant containing only amino acids 94-312 of p53; made in house; host or cells: E. coli
Experiment: In vitro DNA binding activity assay (HTRF / TR-FRET): stabilization of p53 Y220C and increase of its DNA binding activity
Format: biochemical
Conditions: recombinant His-tagged p53 Y220C DNA binding domain (aa 94-312), biotin-labeled consensus DNA, incubated at 27° C. or 29° C. for 60 min
In short: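 His-tagged p53 Y220C, E. coli-expressed, binding biotin-labeled consensus DNA measured by HTRF (anti-His-APC, streptavidin-europium). Compounds from 4.5 mM DMSO stocks, 3-fold serial dilutions; incubations at room temperature 15 min, then 20 min. SC150 = concentration raising DNA binding by 50%.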

T1 sequence (P04637 94-312, change not shown): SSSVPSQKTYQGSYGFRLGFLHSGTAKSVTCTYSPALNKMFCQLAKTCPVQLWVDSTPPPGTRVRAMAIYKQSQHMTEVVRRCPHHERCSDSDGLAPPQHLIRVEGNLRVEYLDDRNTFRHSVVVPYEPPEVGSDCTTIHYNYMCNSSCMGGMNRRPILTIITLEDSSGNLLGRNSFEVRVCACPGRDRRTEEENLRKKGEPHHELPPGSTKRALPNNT

SC150 (concentration of the compound required to increase the DNA binding activity by 50%) | Compound
+ (+ = 0 μM ≤ SC150 < 0.05 μM) | CCNC(=O)c1ccc(NCC#Cc2cc3c(N[C@H]4CC[C@@H](N(C)C)CC4)cccc3n2CC(F)(F)F)c(OC)c1 [Compound 102A, N-ethyl-3-methoxy-4-{[3-(4-{[(1S,4S)-4-(dimethylamino)cyclo-hexyl]amino}-1-(2,2,2-trifluoroethyl)-1H-indol-2-yl)prop-2-yn-1-yl]amino}benzamide]
+ (+ = 0 μM ≤ SC150 < 0.05 μM) | CNC(=O)c1ccc(NCC#Cc2cc3c(N[C@H]4CC[C@H](N(C)C)CC4)cccc3n2CC(F)(F)F)c(OCF)c1 [Compound 106A, 3-(fluoromethoxy)-N-methyl-4-{[3-(4-{[(1R,4R)-4-(dimethyl-amino)cyclohexyl]amino}-1-(2,2,2-trifluoro-ethyl)-1H-indol-2-yl)prop-2-yn-1-yl]amino}benzamide]
+ (+ = 0 μM ≤ SC150 < 0.05 μM) | CNC(=O)c1ccc(NCC#Cc2cc3c(N[C@H]4CC[C@@H](N(C)C)CC4)cccc3n2CC(F)(F)F)c(OCF)c1 [Compound 107A, 3-(fluoromethoxy)-N-methyl-4-{[3-(4-{[(1S,4S)-4-(dimethyl-amino)cyclohexyl]amino}-1-(2,2,2-trifluoro-ethyl)-1H-indol-2-yl)prop-2-yn-1-yl]amino}benzamide]
++ (++ = 0.05 μM ≤ SC150 < 0.1 μM) | CNc1cc(S(C)(=O)=O)ccc1OCC#Cc1cc2c(N[C@H]3CC[C@@H](N(C)C)CC3)cccc2n1CC(F)(F)F [Compound 108A, (1S,4S)-N^4-(2-{3-[4-methanesulfonyl-2-(methylamino)phenoxy]prop-1-yn-1-yl}-1-(2,2,2-trifluoroethyl)-1H-indol-4-yl)-N^1,N^1-dimethylcyclohexane-1,4-diamine]
+ (+ = 0 μM ≤ SC150 < 0.05 μM) | CNc1cc(S(C)(=O)=O)ccc1OCC#Cc1cc2c(N[C@H]3CC[C@H](N(C)C)CC3)cccc2n1CC(F)(F)F [Compound 109A, (1R,4R)-N^4-(2-{3-[4-methanesulfonyl-2-(methylamino)phenoxy]prop-1-yn-1-yl}-1-(2,2,2-trifluoroethyl)-1H-indol-4-yl)-N^1,N^1-dimethylcyclohexane-1,4-diamine]

Further lines, the compound ahead of its results:

Compound | SC150 (concentration of the compound required to increase the DNA binding activity by 50%)
CNC(=O)c1ccc(NCC#Cc2cc3c(N[C@H]4CC[C@H](N(C)C)CC4)cccc3n2CC(F)(F)F)c(OCCOC)c1 [Compound 103A, 3-(2-methoxyethoxy)-N-methyl-4-{[3-(4-{[(1R,4R)-4-(dimethylamino)cyclo-hexyl]amino}-1-(2,2,2-trifluoroethyl)-1H-indol-2-yl)prop-2-yn-1-yl]amino}benzamide] | + (+ = 0 μM ≤ SC150 < 0.05 μM)
CNC(=O)c1ccc(NCC#Cc2cc3c(N[C@H]4CC[C@H](N(C)C)CC4)cccc3n2CC(F)(F)F)c(OCCF)c1 [Compound 104A, 3-(2-fluoroethoxy)-N-methyl-4-{[3-(4-{[(1R,4R)-4-(dimethyl-amino)cyclohexyl]amino}-1-(2,2,2-trifluoro-ethyl)-1H-indol-2-yl)prop-2-yn-1-yl]amino}benzamide] | + (+ = 0 μM ≤ SC150 < 0.05 μM)
CNC(=O)c1ccc(NCC#Cc2cc3c(N[C@H]4CC[C@@H](N(C)C)CC4)cccc3n2CC(F)(F)F)c(OCCF)c1 [Compound 105A, 3-(2-fluoroethoxy)-N-methyl-4-{[3-(4-{[(1S,4S)-4-(dimethyl-amino)cyclohexyl]amino}-1-(2,2,2-trifluoro-ethyl)-1H-indol-2-yl)prop-2-yn-1-yl]amino}benzamide] | + (+ = 0 μM ≤ SC150 < 0.05 μM)
CNC(=O)c1ccc(NCC#Cc2cc3c(N[C@H]4CC[C@@H](NC)CC4)cccc3n2CC(F)(F)F)c(OC)c1 [Compound 110A, 3-methoxy-N-methyl-4-{[3-(4-{[(1S,4S)-4-(methylamino)cyclohexyl]amino}-1-(2,2,2-trifluoro-ethyl)-1H-indol-2-yl)prop-2-yn-1-yl]amino}benzamide] | + (+ = 0 μM ≤ SC150 < 0.05 μM)
